From the NIST ThermoML archive (doi:10.1021/acs.jced.5b00114)
Several values for one entry are separate records, joined by “and”; a condition that tells them apart may be missing. Equal values may be shown once.

Assay: mn = molality of the nth substance listed, in mol/kg
Settings: 101 kPa, Liquid; for viscosity: Capillary tube (Ostwald / Ubbelohde) method; for mass density: Vibrating tube method

Cc1ncc(CO)c(CO)c1O.Cl [5-hydroxy-6-methyl-3,4-pyridinedimethanol hydrochloride] + O
Settings	mass density, 293.15 K	mass density, 303.15 K [kg/m3]	mass density, 313.15 K	mass density, 323.15 K [kg/m3]	viscosity, 293.15 K [mPa·s]	viscosity, 303.15 K	viscosity, 313.15 K	viscosity, 323.15 K [mPa·s]
m1 = 0.0999	1004.23 kg/m3	1001.56	998.03 kg/m3	993.8	1.044	0.829 mPa·s	0.678 mPa·s	0.568
m1 = 0.1	1004.23 kg/m3	1001.57	998.04 kg/m3	993.81	1.044	0.83 mPa·s	0.679 mPa·s	0.568
m1 = 0.1008	1004.28 kg/m3	1001.61	998.1 kg/m3	993.86	1.044	0.83 mPa·s	0.679 mPa·s	0.568
m1 = 0.1992	1010 kg/m3	1007.23	1003.65 kg/m3	999.27	1.084	0.861 mPa·s	0.703 mPa·s	0.587
m1 = 0.2016	1010.1 kg/m3 and 1010.09 kg/m3	1007.34	1003.75 kg/m3 and 1003.74 kg/m3	999.43	1.085	0.861 mPa·s	0.704 mPa·s and 0.703 mPa·s	0.587
m1 = 0.2025	1010.19 kg/m3	1007.42	1003.85 kg/m3	999.49	1.085	0.862 mPa·s	0.704 mPa·s	0.589
m1 = 0.3	1015.66 kg/m3 and 1015.67 kg/m3	1012.81	1009.15 kg/m3	1004.74	1.127	0.894 mPa·s and 0.893 mPa·s	0.729 mPa·s	0.608
m1 = 0.3014	1015.74 kg/m3	1012.88	1009.21 kg/m3	1004.83	1.127	0.894 mPa·s	0.729 mPa·s	0.609
m1 = 0.3999	1021.12 kg/m3 and 1021.11 kg/m3	1018.15	1014.45 kg/m3	1010.01	1.169	0.926 mPa·s	0.755 mPa·s	0.629
m1 = 0.4001	1021.16 kg/m3	1018.19	1014.46 kg/m3	1010.02	1.172	0.926 mPa·s	0.755 mPa·s	0.629
